Data taken from patent publication US7504394B2 (Wyeth, priority 2004, dated 2009).
In brackets after ≈: the same amount, converted by molar mass.

What was measured:
[1] = Equilibrium solubility of bazedoxifene ascorbate in 0.0005 M acetic acid at 37° C.; assay type: physicochemical; conditions: aqueous buffer, thermodynamic from solid, filtered 0.2 um, HPLC
Description: The samples were rotated at 50 rotation/min for 18 hours. All samples were filtered through 0.2 um (Nylon Acrodisc) filter. Samples were analyzed by HPLC.

[2] = test system: ovariectomized rat model of osteopenia; conditions: cited from earlier work
[3] = test system: MCF-7 cell line (human breast cancer cell line); conditions: cited from earlier work
uterine response = conditions: preclinical models of uterine stimulation; cited from earlier work

solubility thermodynamic at 18 h [1] | Structure (SMILES) | effect on bone loss [2] | effect on cholesterol [2] | estrogen agonist/antagonist behaviour [3] | stimulation of uterine response (uterine response)
1660 µg/mL (≈ 3.53 mM) | Cc1c(-c2ccc(O)cc2)n(Cc2ccc(OCCN3CCCCCC3)cc2)c2ccc(O)cc12 [bazedoxifene ascorbate, 1-[4-(2-azepan-1-yl-ethoxy)-benzyl]-2-(4-hydroxy-phenyl)-3-methyl-1H-indol-5-ol] | – | – | – | –
– | Cc1c(-c2ccc(O)cc2)n(Cc2ccc(OCCN3CCCCCC3)cc2)c2ccc(O)cc12 [bazedoxifene acetate] | estrogen agonist-like effect in preventing bone loss | reducing cholesterol | behaves as an estrogen antagonist | little or no stimulation of uterine response
